The text below walks through data of ChEMBL document CHEMBL1136483, “Synthesis and antiviral evaluation of 3-hydroxy-2-methylpyridin-4-one dideoxynucleoside derivatives” (Bioorg Med Chem Lett, 2003).

In test [1] the test system is CCRF-CEM. The experiment in a line: Compound was tested for anti-viral activity against HIV-1 in CEM cells. The test is classed as functional, cell-based. To be noted: Homo sapiens.
Test [2] relates to CCRF-CEM. The experiment in a line: Compound was tested for anti-viral activity against HIV-2 in CEM cells. The test is classed as functional, cell-based. To be noted: Homo sapiens.
Test [3] has as its system CCRF-CEM. The experiment in a line: Compound concentration required to reduce viability of CEM cells. Type of test: functional. To be noted: Homo sapiens.
Test [4] relates to HEL. Briefly: Compound concentration required to reduce viability of HEL cells. Type of test: functional. The following applies: Homo sapiens.
The subject of test [5] is HEL. Briefly: Compound was tested for anti-viral activity against HSV-1(KOS) in HEL cells. The test is classed as functional, cell-based. The following applies: Homo sapiens.
Test [6] concerns HEL. The experiment in a line: Compound was tested for anti-viral activity against HSV-1TK neg in HEL cells. Type of test: functional, cell-based. The following applies: Homo sapiens.
The subject of test [7] is Human herpesvirus 2 (Herpes simplex virus type 2). The experiment in a line: Compound was tested for anti-viral activity against HSV-2(G) in HEL cells.

For `Cc1c(O)c(=O)ccn1[C@H]1CC[C@@H](CO)O1`, the EC50 with CCRF-CEM [1] was more than 50 µM; in the test with CCRF-CEM [2], more than 50 µM; in the test with HEL [5], 40 µM; in the test with HEL [6], 500 µM; in test [7], more than 900 µM. Besides, the CC50 was 101 µM in the test with CCRF-CEM [3] and more than 900 µM in the test on HEL [4].

Take `Cc1c(O)c(=O)ccn1[C@@H]1CC[C@@H](CO)O1`: the EC50 with CCRF-CEM [1] is more than 50 µM; in the test with CCRF-CEM [2] it was more than 50 µM; in the test with HEL [5] it was 177 µM; in the test with HEL [6], 500 µM; in test [7], 500 µM. Moreover, the CC50 with CCRF-CEM [3] is more than 50 µM; in the test with HEL [4], more than 900 µM.

Regarding `Cc1c(O)c(=O)ccn1[C@@H]1CS[C@@H](CO)O1` (racemic), the EC50 was more than 80 µM in the test on CCRF-CEM [1]; more than 80 µM in the test with CCRF-CEM [2]; 40 µM in the test on HEL [5]; 95 µM in the test with HEL [6]; 90 µM in test [7]. In addition, the CC50 with CCRF-CEM [3] is 203 µM; in the test on HEL [4], more than 400 µM.

As for `Cc1c(O)c(=O)ccn1[C@H]1CS[C@@H](CO)O1` (racemic), the concentration for a half-maximal effect (EC50) with CCRF-CEM [1] is more than 80 µM; in the test with CCRF-CEM [2], more than 80 µM; in the test on HEL [5], 32 µM; with HEL [6] it was 80 µM; in test [7] it was 81 µM. In addition, the CC50 in the test on CCRF-CEM [3] is 203 µM; with HEL [4] it was more than 100 µM.

Take `Nc1nc2c(ncn2COCCO)c(=O)[nH]1` [ACYCLOVIR]: the EC50 is more than 200 µM in the test on CCRF-CEM [1], more than 200 µM in the test with CCRF-CEM [2], 0.32 µM with HEL [5] and 88 µM with HEL [6]. Further, the figures for the CC50 in the test on CCRF-CEM [3] and in the test with HEL [4] were more than 200 µM and more than 1700 µM, respectively.

For the molecule `Nc1ccn(C[C@@H](CO)OCP(=O)(O)O)c(=O)n1` [CIDOFOVIR], the EC50 in the test with CCRF-CEM [1] was more than 200 µM; in the test on CCRF-CEM [2] it was more than 200 µM; with HEL [5], 0.57 µM. The CC50 in the test on CCRF-CEM [3] is more than 200 µM; in the test on HEL [4], more than 350 µM.

With `Nc1nc2c(ncn2COC(CO)CO)c(=O)[nH]1` [GANCICLOVIR], the concentration giving a half-maximal response (EC50) in the test with CCRF-CEM [1] is more than 200 µM; in the test with CCRF-CEM [2], more than 200 µM; in test [7], 0.06 µM. For the same molecule, the CC50 was more than 200 µM in the test with CCRF-CEM [3] and more than 400 µM with HEL [4].

As usually defined, the EC50 is the midpoint of the concentration-response curve. The CC50 is the concentration that lowers cell viability or growth by half.
